Where “and” joins values, the source holds several entries; their conditions need not be identical. Equal entries are not always repeated.
Experiments:
Plasmodium berghei [1] = assay: Antimalarial effect against trophozoite-induced Plasmodium berghei in mice (Mus musculus) after 20 mg/kg subcutaneous dose; type: functional
Plasmodium berghei [2] = assay: Antimalarial effect against trophozoite-induced Plasmodium berghei in mice (Mus musculus) at 320 mg/kg subcutaneous dose; type: functional
Plasmodium berghei [3] = assay: (§1) Antimalarial effect against trophozoite-induced Plasmodium berghei in mice (Mus musculus) at 640 mg/kg subcutaneous dose; type: functional
Plasmodium berghei [4] = assay: Antimalarial effect against trophozoite-induced Plasmodium berghei in mice (Mus musculus) at 160 mg/kg subcutaneous dose; type: functional
Plasmodium berghei [5] = assay: Antimalarial effect against trophozoite-induced Plasmodium berghei in mice (Mus musculus) at 80 mg/kg subcutaneous dose; type: functional
Mus musculus [6] = assay: Antimalarial effect against trophozoite induced Plasmodium berghei in mice (Mus musculus) at dosage of 160 mg/kg after subcutaneous administration; No. of mice (Mus musculus) surviving after 60 days 1; type: functional
Plasmodium berghei [7] = assay: Antimalarial effect against trophozoite-induced Plasmodium berghei in mice (Mus musculus) after 40 mg/kg subcutaneous dose; type: functional
Mus musculus [8] = assay: Number of mice cured at a dose of 640 mg/kg sc; type: functional; conditions: route subcutaneous
Mus musculus [9] = assay: Number of toxic deaths at a dose of 320 mg/kg; type: toxicity, organism-based; design: dose 320 mg/kg; conditions: in vivo
Mus musculus [10] = assay: Number of toxic deaths at a dose of 640 mg/kg; type: toxicity, organism-based; design: dose 640 mg/kg; conditions: in vivo
Mus musculus [11] = assay: Number of mice cured at a subcutaneous dose of 320 mg/kg.; type: functional
Plasmodium berghei [12] = assay: Antimalarial activity against trophozoite-induced Plasmodium berghei in mice (Mus musculus); type: functional
[13] = The ratio of SD90 of the quinine hydrochloride, to the SD90 of the test substance for the Dose of 82 mg/kg; type: functional
[14] = The ratio of SD90 of the quinine hydrochloride, to the SD90 of the test substance for the Dose of 63 mg/kg; type: functional
Plasmodium berghei [15] = assay: Antimalarial activity against trophozoite-induced Plasmodium berghei in mice (Mus musculus) at 160 mg/kg subcutaneous dose; type: functional
Mus musculus [16] = assay: Number of mice cured at a subcutaneous dose of 160 mg/kg.; type: functional
[17] = The ratio of SD90 of the quinine hydrochloride, to the SD90 of the test substance for the Dose of 91 […]; type: functional
Plasmodium berghei [18] = assay: as §1; type: functional; remark: listed apart in the source
[19] = The ratio of SD90 of the quinine hydrochloride, to the SD90 of the test substance for the Dose of mg/kg; type: functional
[20] = The ratio of SD90 of the quinine hydrochloride, to the SD90 of the test substance for the Dose of 47 mg/kg; type: functional
Mus musculus [21] = assay: Antimalarial effect against trophozoite-induced Plasmodium berghei in mice (Mus musculus) at dosage of 640 mg/kg after subcutaneous administration; No. of mice (Mus musculus) surviving after 60 days 4; type: functional
[22] = The ratio of SD90 of the quinine hydrochloride, to the SD90 of the test substance for the Dose of 9.2 mg/kg; type: functional
[23] = The ratio of SD90 of the quinine hydrochloride, to the SD90 of the test substance for the Dose of 35 mg/kg; type: functional
[24] = The ratio of SD90 of the quinine hydrochloride, to the SD90 of the test substance for the Dose of 18.5 mg/kg; type: functional
Mus musculus [25] = assay: Number of mice cured at a dose of 320 mg/kg sc; type: functional; conditions: route subcutaneous
Mus musculus [26] = assay: Number of mice cured at a subcutaneous dose of 640 mg/kg.; type: functional
[27] = The ratio of SD90 of the quinine hydrochloride, to the SD90 of the test substance for the Dose of 16 mg/kg; type: functional

SMILES: CCN(CC)CCNc1nc(Nc2ccc(Cl)c(Cl)c2)c2ccccc2n1
- MST (Plasmodium berghei [1]): 0.2 days
- MST (Plasmodium berghei [2]): 3.2 days
- MST (Plasmodium berghei [3]; 640 mg/kg): 10.3 days and 5.4 days and 5.9 days
- MST (Plasmodium berghei [4]): 0.9 days
- MST (Plasmodium berghei [5]): 0.2 days
- MST (Mus musculus [6]): 0.2 days

SMILES: CCN(CC)Cc1cc(Nc2nc(NCCN3CCCC3)c3ccccc3n2)ccc1O
- MST (Plasmodium berghei [1]): 0.3 days
- MST (Plasmodium berghei [7]): 1.7 days
- MST (Plasmodium berghei [4]): 10.2 days
- MST (Plasmodium berghei [5]): 2.1 days
- No. of survivals (Mus musculus [8]): 1
- No. of toxic deaths (Mus musculus [9]): 1
- No. of toxic deaths (Mus musculus [10]): 1
- No. of survivals (Mus musculus [11]): 1

SMILES: CCN(CC)CCNc1nc(Nc2ccc(Cl)c(Cl)c2)nc2cc(NCc3ccc(Cl)c(Cl)c3)ccc12
- MST (Plasmodium berghei [1]; 20 mg/kg): 0.1 days and 0.2 days and 0.3 days
- MST (Plasmodium berghei [2]; 320 mg/kg): 1.7 days and 2 days and 2.5 days
- MST (Plasmodium berghei [7]; 40 mg/kg): 0.1 days and 0.2 days and 0.3 days
- MST (Plasmodium berghei [3]): 8.9 days
- MST (Plasmodium berghei [4]; 160 mg/kg): 1.3 days and 1 days and 0.7 days
- SD90 (Plasmodium berghei [12]): 82 mg/kg/day
- MST (Plasmodium berghei [5]; 80 mg/kg): 0.3 days and 0.6 days
- Ratio [13]: 0.9

SMILES: CCN1CCCC(Nc2nc(Nc3ccc(Cl)c(Cl)c3)nc3cc(Cl)ccc23)C1 (stereo not drawn)
- MST (Plasmodium berghei [1]): 0.1 days
- MST (Plasmodium berghei [2]): 0.3 days
- SD90 (Plasmodium berghei [12]): 63 mg/kg/day
- MST (Plasmodium berghei [5]): 0.3 days
- Ratio [14]: 1.2

SMILES: CN1CCCC1CCNc1nc(Nc2ccc(Cl)c(Cl)c2)c2ccccc2n1 (stereo not drawn)
- MST (Plasmodium berghei [1]): 0.3 days
- MST (Plasmodium berghei [2]): 11.2 days
- MST (Plasmodium berghei [7]): 0.5 days
- MST (Plasmodium berghei [4]; 160 mg/kg): 6.9 days and 7.1 days
- MST (Plasmodium berghei [5]; 80 mg/kg): 0.5 days and 0.7 days
- No. of survivals (Mus musculus [8]): 1
- No. of toxic deaths (Mus musculus [9]): 1 and 2
- No. of toxic deaths (Mus musculus [10]): 2
- No. of survivals (Mus musculus [11]): 1

SMILES: CN(C)C1CCC(Nc2nc(Nc3ccc(Cl)c(Cl)c3)c3ccccc3n2)CC1 (stereo not drawn)
- MST (Plasmodium berghei [1]): 0.3 days
- MST (Plasmodium berghei [2]): 9.9 days
- MST (Plasmodium berghei [7]; 40 mg/kg): 4.1 days and 3.7 days
- MST (Plasmodium berghei [15]): 12.6 days
- MST (Plasmodium berghei [4]): 12.9 days
- MST (Plasmodium berghei [5]): 7.9 days
- No. of survivals (Mus musculus [16]): 2
- No. of survivals (Mus musculus [8]): 3
- No. of toxic deaths (Mus musculus [10]): 2
- No. of survivals (Mus musculus [11]): 2

SMILES: Brc1cccc(Nc2nc(NCCN3CCCC3)c3ccccc3n2)c1
- MST (Plasmodium berghei [1]): 0.2 days
- MST (Plasmodium berghei [2]): 5 days
- MST (Plasmodium berghei [3]; 640 mg/kg): 8.4 days and 8.1 days
- MST (Plasmodium berghei [4]; 160 mg/kg): 4.4 days and 4 days
- SD90 (Plasmodium berghei [12]): 91 mg/kg/day
- MST (Plasmodium berghei [5]): 0.4 days
- Ratio [17]: 0.8

SMILES: CCN(CC)CCNc1nc(Nc2ccc(Cl)c(Cl)c2)nc2cc(N)ccc12
- MST (Plasmodium berghei [1]; 20 mg/kg): 0.6 days and 0.9 days
- MST (Plasmodium berghei [2]; 320 mg/kg): 16.8 days and 16.9 days
- MST (Plasmodium berghei [7]; 40 mg/kg): 3.2 days and 3.5 days
- MST (Plasmodium berghei [18]): 29.8 days
- MST (Plasmodium berghei [4]; 160 mg/kg): 13.2 days and 13.5 days
- SD90 (Plasmodium berghei [12]): 30.5 mg/kg/day
- MST (Plasmodium berghei [5]; 80 mg/kg): 6 days and 6.3 days
- No. of survivals (Mus musculus [8]): 4
- Ratio [19]: 30.5
- No. of survivals (Mus musculus [11]): 3

SMILES: CCN(CC)CCNc1nc(Nc2ccc(Cl)c(Cl)c2)nc2ccc(N)cc12
- MST (Plasmodium berghei [1]; 20 mg/kg): 1.6 days and 2 days
- MST (Plasmodium berghei [7]): 3.8 days
- MST (Plasmodium berghei [15]): 29.8 days
- SD90 (Plasmodium berghei [12]): 47 mg/kg/day
- MST (Plasmodium berghei [5]): 6.8 days
- No. of survivals (Mus musculus [16]): 4
- No. of survivals (Mus musculus [8]): 3
- No. of toxic deaths (Mus musculus [10]): 2
- Ratio [20]: 1.6
- No. of survivals (Mus musculus [11]): 5

SMILES: CSc1ccc(Nc2nc(NCCCN3CCCC3)c3ccccc3n2)cc1
- MST (Plasmodium berghei [7]): 1 days
- MST (Plasmodium berghei [4]): 6.8 days
- SD90 (Plasmodium berghei [12]): 47 mg/kg/day
- No. of toxic deaths (Mus musculus [10]): 5
- Ratio [20]: 1.6

SMILES: CCN1CCCC(Nc2nc(Nc3cc(Cl)cc(Cl)c3)nc3cc(Cl)ccc23)C1 (stereo not drawn)
- MST (Plasmodium berghei [7]): 0.2 days
- MST (Plasmodium berghei [3]): 1.6 days
- MST (Plasmodium berghei [4]): 0.4 days
- SD90 (Plasmodium berghei [12]): 73 mg/kg/day
- Ratio [19]: 73

SMILES: CCN(CC)CCNc1nc(Nc2ccc(Cl)c(Cl)c2)nc2cc([N+](=O)[O-])ccc12
- MST (Plasmodium berghei [1]): 0.3 days
- MST (Plasmodium berghei [2]): 9.5 days
- MST (Plasmodium berghei [7]): 0.3 days
- MST (Plasmodium berghei [18]): 26.9 days
- MST (Mus musculus [21]): 21.9 days
- MST (Plasmodium berghei [4]; 160 mg/kg): 0.9 days and 1.1 days
- SD90 (Plasmodium berghei [12]): 9.2 mg/kg/day
- MST (Plasmodium berghei [5]): 0.9 days
- No. of survivals (Mus musculus [8]): 3
- Ratio [22]: 8.1

SMILES: CCN(CC)CCNc1nc(Nc2ccc(Cl)cc2)nc2ccccc12
- MST (Plasmodium berghei [1]): 1.6 days
- MST (Plasmodium berghei [7]; 40 mg/kg): 4.1 days and 4.6 days
- MST (Plasmodium berghei [4]): 11.1 days
- SD90 (Plasmodium berghei [12]): 35 mg/kg/day
- MST (Plasmodium berghei [5]): 6.2 days
- No. of survivals (Mus musculus [16]): 2
- No. of survivals (Mus musculus [8]): 5
- No. of toxic deaths (Mus musculus [9]): 2
- Ratio [23]: 2.1
- No. of survivals (Mus musculus [11]): 3

SMILES: CN(C)C1CCC(Nc2nc(Nc3ccc(Cl)c(Cl)c3)nc3ccccc23)CC1 (stereo in doubt; 24)
- MST (Plasmodium berghei [1]; 20 mg/kg): 0.4 days
- MST (Plasmodium berghei [2]; 320 mg/kg): 24.3 days
- MST (Plasmodium berghei [7]; 40 mg/kg): 4.8 days and 3.8 days
- MST (Plasmodium berghei [15]; 160 mg/kg): 20.1 days and 16.5 days
- SD90 (Plasmodium berghei [12]): 9.2 mg/kg/day
- MST (Plasmodium berghei [5]): 6.4 days
- No. of survivals (Mus musculus [16]; 160 mg/kg): 1 and 2
- Ratio [22]: 8.2
- No. of survivals (Mus musculus [11]): 3

SMILES: FC(F)(F)c1cc(Nc2nc(NCCN3CCCC3)c3ccccc3n2)cc(C(F)(F)F)c1
- MST (Plasmodium berghei [7]): 0.2 days
- MST (Plasmodium berghei [3]): 1 days
- MST (Plasmodium berghei [4]): 0.2 days
- SD90 (Plasmodium berghei [12]): 105 mg/kg/day
- Ratio [19]: 105

SMILES: CN1CCCC1CCNc1nc(Nc2ccc(Cl)c(Cl)c2)nc2ccc(Cl)cc12 (stereo not drawn)
- MST (Plasmodium berghei [1]): 0.5 days
- MST (Plasmodium berghei [2]): 14.2 days
- MST (Plasmodium berghei [7]; 40 mg/kg): 1.1 days and 0.5 days
- MST (Plasmodium berghei [3]): 13.6 days
- MST (Plasmodium berghei [4]; 160 mg/kg): 6.1 days and 2.5 days
- SD90 (Plasmodium berghei [12]): 18.5 mg/kg/day
- MST (Plasmodium berghei [5]): 2.7 days
- Ratio [24]: 4
- No. of survivals (Mus musculus [11]): 2

SMILES: CSc1ccc(Nc2nc(NCCN3CCCC3)c3ccccc3n2)cc1
- MST (Plasmodium berghei [1]): 0.7 days
- MST (Plasmodium berghei [2]): 10.3 days
- MST (Plasmodium berghei [7]; 40 mg/kg): 0.9 days and 0.3 days
- MST (Plasmodium berghei [4]; 160 mg/kg): 5.9 days and 4.7 days
- SD90 (Plasmodium berghei [12]): 35 mg/kg/day
- MST (Plasmodium berghei [5]): 3.3 days
- Ratio [23]: 2.1

SMILES: CN1CCCC1CCNc1nc(Nc2ccc(C(F)(F)F)cc2)nc2ccccc12 (stereo not drawn)
- MST (Plasmodium berghei [1]): 1 days
- MST (Plasmodium berghei [2]): 15.5 days
- MST (Plasmodium berghei [7]): 1.2 days
- MST (Plasmodium berghei [18]): 25.8 days
- MST (Plasmodium berghei [4]): 10.5 days
- No. of cured (Mus musculus [25]): 2
- No. of cured (Mus musculus [26]): 4
- SD90 (Plasmodium berghei [12]): 16 mg/kg/day
- MST (Plasmodium berghei [5]): 3.2 days
- Ratio [27]: 4.7
